This is an account of results in US10626112B2, “Heterocyclic sulfonamide derivative and medicine comprising same” (EA PHARMA CO., LTD., priority 2014, dated 2020).

In the experiment the target is human TRPA1 (Homo sapiens (Human), UniProt O75762). In words: Measurement of TRPA1 antagonist activity (1): intracellular calcium increase. The conditions noted are these: 293T cells transfected with human TRPA1 expression plasmid; allylisothiocyanate 20 μM stimulation; intracellular calcium fluorescence; read-out: hTRPA1 IC50. The format is cell-based. In a few lines: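 Calcium-flux readout of TRPA1 block: compound given 10 min before 20 μM (final) allylisothiocyanate, fluorescence tracked 5 min. Cells were 293T transiently expressing human TRPA1, dye-loaded 1 hr in HBSS, 20 mM HEPES, pH 7.2. Inhibition scaled between agonist-only and buffer-only responses; IC50 by sigmoid fitting.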
Chain of human TRPA1 (O75762 whole entry): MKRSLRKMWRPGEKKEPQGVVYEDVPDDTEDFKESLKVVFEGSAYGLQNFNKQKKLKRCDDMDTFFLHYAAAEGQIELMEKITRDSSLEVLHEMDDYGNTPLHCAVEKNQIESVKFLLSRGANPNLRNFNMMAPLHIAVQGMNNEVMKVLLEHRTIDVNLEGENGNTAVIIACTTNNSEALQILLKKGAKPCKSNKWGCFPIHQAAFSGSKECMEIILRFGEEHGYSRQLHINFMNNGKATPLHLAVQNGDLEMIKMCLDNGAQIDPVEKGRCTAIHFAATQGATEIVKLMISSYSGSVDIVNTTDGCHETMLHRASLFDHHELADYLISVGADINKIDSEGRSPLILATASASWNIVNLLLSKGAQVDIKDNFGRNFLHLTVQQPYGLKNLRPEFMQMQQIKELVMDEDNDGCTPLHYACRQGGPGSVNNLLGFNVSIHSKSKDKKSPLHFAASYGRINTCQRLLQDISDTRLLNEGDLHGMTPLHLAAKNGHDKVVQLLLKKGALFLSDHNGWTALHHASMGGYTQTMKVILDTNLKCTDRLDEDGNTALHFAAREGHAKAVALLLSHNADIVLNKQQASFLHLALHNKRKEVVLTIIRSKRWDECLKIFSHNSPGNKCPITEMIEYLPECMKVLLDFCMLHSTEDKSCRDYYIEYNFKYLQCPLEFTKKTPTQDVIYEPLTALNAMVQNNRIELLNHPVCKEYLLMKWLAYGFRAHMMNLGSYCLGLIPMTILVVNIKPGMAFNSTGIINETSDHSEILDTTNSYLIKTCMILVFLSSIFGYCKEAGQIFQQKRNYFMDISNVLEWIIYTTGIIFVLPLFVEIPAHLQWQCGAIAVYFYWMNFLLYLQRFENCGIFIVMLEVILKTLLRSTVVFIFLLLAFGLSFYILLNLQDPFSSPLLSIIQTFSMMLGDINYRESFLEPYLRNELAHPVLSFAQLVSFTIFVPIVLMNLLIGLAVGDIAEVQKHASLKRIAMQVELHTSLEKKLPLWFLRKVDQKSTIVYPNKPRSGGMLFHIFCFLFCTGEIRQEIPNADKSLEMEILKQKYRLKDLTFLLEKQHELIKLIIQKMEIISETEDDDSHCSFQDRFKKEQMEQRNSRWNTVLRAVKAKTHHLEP
In the case of `O=C(NCc1cc(-c2ccc(OC(F)(F)F)cc2)ncn1)[C@@H]1CCCN1S(=O)(=O)c1cc2ccccc2o1` [Example 203, (2S)-1-(benzofuran-2-ylsulfonyl)-N-[[6-[4-(trifluoromethoxy)phenyl]-pyrimidin-4-yl]methyl]pyrrolidine-2-carboxamide], the half-inhibitory concentration (IC50) – broadly, the concentration needed to halve the response being measured – amounted to 3.2 nM.
As for `O=C(NCc1cccc(Cc2ccccc2)c1)[C@@H]1CCCN1S(=O)(=O)c1cc2cc(F)ccc2o1` [Example 319, (2S)—N-[(3-benzylphenyl)methyl]-1-(5-fluorobenzofuran-2-yl)sulfonyl-pyrrolidine-2-carboxamide], the figure is 27 nM; as for `CC(C)COc1nc(CNC(=O)[C@@H]2CCCN2S(=O)(=O)c2cc3ccccc3o2)cc(-c2ccc(C(F)(F)F)cc2)n1` [Example 311, (2S)-1-(benzofuran-2-ylsulfonyl)-N-[[2-isobutoxy-6-[4-(trifluoromethyl)phenyl]pyrimidin-4-yl]methyl]pyrrolidine-2-carboxamide], 3.7 nM; as for `C[C@H](NS(=O)(=O)c1cc2cc(F)ccc2o1)C(=O)NCc1cc(-c2ccc(OC(F)(F)F)cc2)ncn1` [Example 190, (2S)-2-[(5-fluorobenzofuran-2-yl)sulfonylamino]-N-[[6-[4-(trifluoromethoxy)phenyl]pyrimidin-4-yl]methyl]propanamide], 5.2 nM.
As for `O=C(NCc1cccc(SCc2ccccc2)c1)[C@@H]1CCCN1S(=O)(=O)c1cc2ccccc2o1` [Example 57, (2S)-1-(benzofuran-2-ylsulfonyl)-N-[(3-benzylsulfanylphenyl)methyl]pyrrolidine-2-carboxamide], the IC50 was determined as 16 nM.
As for `CSc1ccc(-c2cc(CNC(=O)[C@@H]3CCCN3S(=O)(=O)c3cc4ccccc4o3)ccn2)cc1` [Example 278, (2S)-1-(benzofuran-2-ylsulfonyl)-N-[[2-(4-methylsulfanylphenyl)-4-pyridyl]methyl]pyrrolidine-2-carboxamide], the figure is 16 nM; as for `O=C(NCc1cc(-c2cc(Cl)cs2)ccn1)[C@@H]1CCCN1S(=O)(=O)c1cc2ccccc2o1` [Example 286, (2S)-1-(benzofuran-2-ylsulfonyl)-N-[[4-(4-chloro-2-thienyl)-2-pyridyl]methyl]pyrrolidine-2-carboxamide], 180 nM.
Turning to `CC(C)(C)OC(=O)Nc1ccccc1-c1cc(CNC(=O)[C@@H]2CCCN2S(=O)(=O)c2cc3ccccc3o2)ccn1` [Example 276, N-[2-[4-[[[(2S)-1-(benzofuran-2-ylsulfonyl)pyrrolidine-2-carbonyl]amino]methyl]-2-pyridyl]phenyl]carbamic acid tert-butyl], the 50% inhibitory concentration (IC50) was 150 nM.
Turning to `O=C(NCc1cc(F)cc(OCc2ccncc2)c1)[C@@H]1CCCN1S(=O)(=O)c1cc2cc(F)ccc2o1` [Example 35, (2S)-1-(5-fluorobenzofuran-2-yl)sulfonyl-N-[[3-fluoro-5-(4-pyridylmethoxy)-phenyl]methyl]-pyrrolidine-2-carboxamide], the IC50 was found to be 8 nM.
For `O=C(NCc1ccnc(-c2cccc(F)c2)c1)[C@@H]1CCCN1S(=O)(=O)c1cc2ccccc2o1` [Example 113, (2S)-1-(benzofuran-2-ylsulfonyl)-N-[[2-(3-fluorophenyl)-4-pyridyl]methyl]pyrrolidine-2-carboxamide], the IC50 is 120 nM.
On to `O=C(NCc1cc(-c2ccc(C(F)(F)F)nc2)cnn1)[C@@H]1CCCN1S(=O)(=O)c1cc2ccccc2o1` [Example 211, (2S)-1-(benzofuran-2-ylsulfonyl)-N-[[5-[6-(trifluoromethyl)-3-pyridyl]pyridazin-3-yl]methyl]pyrrolidine-2-carboxamide], for which the IC50 is 72 nM.
Regarding `O=C(NCc1ccnc(-c2cc(F)c(F)cc2O)c1)[C@@H]1CCCN1S(=O)(=O)c1cc2ccccc2o1` [Example 122, (2S)-1-(benzofuran-2-ylsulfonyl)-N-[[2-(4,5-difluoro-2-hydroxy-phenyl)-4-pyridyl]methyl]pyrrolidine-2-carboxamide], the IC50 turned out to be 170 nM.
Regarding `O=C(NCc1cccc(OCc2ccccc2)c1)[C@@H]1CCCN1S(=O)(=O)c1cc2ccccc2o1` [Example 37, (2S)-1-(benzofuran-2-ylsulfonyl)-N-[(3-benzyloxyphenyl)methyl]pyrrolidine-2-carboxamide], the IC50 is 14 nM.
For `C#CCN([C@@H](C)C(=O)NCc1ccnc(-c2ccc(C(F)(F)F)cc2O)c1)S(=O)(=O)c1cc2cc(F)ccc2o1` [Example 275, (2S)-2-[(5-fluorobenzofuran-2-yl)sulfonyl-2-propynylamino]-N-[[2-[2-hydroxy-4-(trifluoromethyl)phenyl]-4-pyridyl]methyl]propanamide], the IC50 was determined as 3.8 nM.
As to `O=C(NCc1cccc(/C=C/c2ccc(C(F)(F)F)cc2)c1)[C@@H]1CCCN1S(=O)(=O)c1cc2cc(F)ccc2o1` [Example 297, (2S)-1-(5-fluorobenzofuran-2-yl)sulfonyl-N-[[3-[(E)-2-[4-(trifluoromethyl)phenyl]vinyl]phenyl]methyl]pyrrolidine-2-carboxamide], the IC50 stood at 7.5 nM.
Take `O=C(NCc1ccnc(-c2ccc(C(F)(F)F)cc2O)c1)[C@@H]1CCCN1S(=O)(=O)c1cc2cc(F)ccc2o1` [Example 138, (2S)-1-(5-fluorobenzofuran-2-yl)sulfonyl-N-[[2-[2-hydroxy-4-(trifluoromethyl)phenyl]-4-pyridyl]methyl]pyrrolidine-2-carboxamide]: the IC50 is 0.97 nM.
On to `O=C(NCc1ccnc(-c2cc(F)c(F)cc2O)c1)[C@@H]1CCCN1S(=O)(=O)c1cc2cc(F)ccc2o1` [Example 137, (2S)-N-[[2-(4,5-difluoro-2-hydroxy-phenyl)-4-pyridyl]methyl]-1-(5-fluorobenzofuran-2-yl)sulfonyl-pyrrolidine-2-carboxamide], for which the IC50 was 29 nM.
`O=C(NCc1cc(/C=C/C2CC2)ccn1)[C@@H]1CCCN1S(=O)(=O)c1cc2ccccc2o1` [Example 282, (2S)-1-(benzofuran-2-ylsulfonyl)-N-[[4-[(E)-2-cyclopropylvinyl]-2-pyridyl]methyl]pyrrolidine-2-carboxamide]: the IC50 amounted to 250 nM.
Take `O=C(NCc1cccc(Nc2ccc(C(F)(F)F)cc2)c1)[C@@H]1CCCN1S(=O)(=O)c1cc2cc(F)ccc2o1` [Example 296, (2S)-1-(5-fluorobenzofuran-2-yl)sulfonyl-N-[[3-[4-(trifluoromethyl)anilino]phenyl]methyl]pyrrolidine-2-carboxamide]: the IC50 amounted to 7.9 nM.
For `O=C(NCc1cccc(COc2ccc(C(F)(F)F)cc2)c1)[C@@H]1CCCN1S(=O)(=O)c1cc2ccccc2o1` [Example 298, (2S)-1-(benzofuran-2-ylsulfonyl)-N-[[3-[[4-(trifluoromethyl)phenoxy]methyl]phenyl]methyl]pyrrolidine-2-carboxamide], the IC50 was 11 nM.
In the case of `O=C(NCc1cc(-c2ccc(C(F)(F)F)cn2)ccn1)[C@@H]1C[C@H]2C[C@H]2N1S(=O)(=O)c1cc2cc(F)ccc2o1` [Example 258, (1R,3S,5R)-4-(5-fluorobenzofuran-2-yl)sulfonyl-N-[[4-[5-(trifluoromethyl)-2-pyridyl]-2-pyridyl]methyl]-4-azabicyclo[3.1.0]hexane-3-carboxamide], the IC50 was 1.9 nM.
Take `CN(C)c1ccc(-c2cccc(CNC(=O)[C@@H]3CCCN3S(=O)(=O)c3cc4cc(F)ccc4o3)c2)cn1` [Example 159, (2S)-N-[[3-[6-(dimethylamino)-3-pyridyl]phenyl]methyl]-1-(5-fluorobenzofuran-2-yl)sulfonyl-pyrrolidine-2-carboxamide]: the IC50 was 6.2 nM.
In the case of `O=C(NCc1cccc(OCc2cncc(C(F)(F)F)c2)c1)[C@@H]1CCCN1S(=O)(=O)c1cc2ccccc2o1` [Example 9, (2S)-1-(benzofuran-2-ylsulfonyl)-N-[[3-[[5-(trifluoromethyl)-3-pyridyl]methoxy]phenyl]-methyl]pyrrolidine-2-carboxamide] it was 7.6 nM; in that of `O=C(NCc1cc(-c2cnc(C3CC3)nc2)ccc1F)[C@@H]1CCCN1S(=O)(=O)c1cc2ccccc2o1` [Example 173, (2S)-1-(benzofuran-2-ylsulfonyl)-N-[[5-(2-cyclopropylpyrimidin-5-yl)-2-fluoro-phenyl]methyl]pyrrolidine-2-carboxamide], 17 nM.
For `O=C(NCc1cc(-c2ncc(C(F)(F)F)cn2)ccn1)[C@@H]1CCCN1S(=O)(=O)c1cc2ccccc2o1` [Example 192, (2S)-1-(benzofuran-2-ylsulfonyl)-N-[[4-[5-(trifluoromethyl)pyrimidin-2-yl]-2-pyridyl]methyl]pyrrolidine-2-carboxamide], the IC50 was determined as 22 nM.
In the case of `C[C@H](NS(=O)(=O)c1cc2cc(F)ccc2o1)C(=O)NCc1cc(-c2ccc(C(F)(F)F)cc2)ncn1` [Example 109, (2S)-2-[(5-fluorobenzofuran-2-yl)sulfonylamino]-N-[[6-[4-(trifluoromethyl)phenyl]pyrimidin-4-yl]methyl]propanamide], the concentration for half-maximal inhibition (IC50) came to 4.7 nM.
Turning to `O=C(NCc1cccc(OCc2ccc(C(F)(F)F)nc2)c1)[C@@H]1CCCN1S(=O)(=O)c1cc2cc(F)ccc2o1` [Example 20, (2S)-1-(5-fluorobenzofuran-2-yl)sulfonyl-N-[[3-[[6-(trifluoromethyl)-3-pyridyl]methoxy]phenyl]-methyl]pyrrolidine-2-carboxamide], the IC50 came to 1.4 nM.
As for `C[C@H](NS(=O)(=O)c1cc2cc(F)ccc2o1)C(=O)NCc1cccc(-c2ccc(C(F)(F)F)nn2)c1` [Example 235, (2S)-2-[(5-fluorobenzofuran-2-yl)sulfonylamino]-N-[[3-[6-(trifluoromethyl)pyridazin-3-yl]phenyl]methyl]propanamide], the IC50 is 20 nM.
For the molecule `O=C(NCc1ccc(Oc2cccc(C(F)(F)F)c2)cc1)[C@@H]1CCCN1S(=O)(=O)c1cc2ccccc2o1` [Example 50, (2S)-1-(benzofuran-2-ylsulfonyl)-N-[[4-[3-(trifluoromethyl)phenoxy]phenyl]-methyl]pyrrolidine-2-carboxamide], the half-inhibitory concentration (IC50) amounted to 160 nM.
